Test results reported in patent publication US9938245B2 (THE TRUSTEES OF COLUMBIA UNIVERSITY IN THE CITY OF NEW YORK, priority 2014, dated 2018).

What was measured:
BJeLR = assay: Concentration-dependent growth inhibition (alamar blue), isogenic BJ cell lines; format: cell-based, human
HT1080 = assay: Concentration-dependent growth inhibition (alamar blue), HT1080; format: cell-based, human; settings: 2 days
Experimental: Assay plates were prepared by seeding either BJ-derived cell lines or HT-1080 cells at 1,500 cells per well concentration in 36 μL growth medium. Cells in the assay plates were treated with compounds by transferring 4 μL volume from the compound plate. The final concentration of compound was typically 30 μM to 0.9 nM in this 16-point, 2-fold dilution series. Assay plates were returned to the culture incubator and maintained for 2 days before adding alamar blue. […] Plates were incubated further for 16 hours to allow reduction of alamar blue, which results in the generation of red fluorescence. The fluorescence intensity was determined using a Victor 3 plate reader (Perkin Elmer) with a 535 nm excitation filter and a 590 nm emission filter.
Percent growth inhibition (% GI) was calculated from the following formula using the alamar blue fluorescence intensity values. % GI=100*(1−(X−N)/(P−N)) X, cells treated with lethal compound; N, no cells—growth media only; P, no lethal compound—cells only.
The concentration-dependent curves were generated using Prism software. Percent growth inhibition, measured using alamar blue is shown. Error bars indicate one standard deviation of triplicate data.
The results are shown in FIG. 17 and in Table 7 below.

[1] = system: BJeH, BJeHLT, BJeLR, and DRD; assay: RSL testing in 4 BJ-derived cell lines; format: cell-based, human
[2] = mouse
system xc− = target: T1, system xc− (Homo sapiens, UniProt Q9UPY5); assay: Glutamate release assay (system xc− activity); settings: read-out: IC50 glutamate release; CCF-STTG1 human astrocytoma cells, 2 hour incubation
T1 sequence (Q9UPY5 1-501): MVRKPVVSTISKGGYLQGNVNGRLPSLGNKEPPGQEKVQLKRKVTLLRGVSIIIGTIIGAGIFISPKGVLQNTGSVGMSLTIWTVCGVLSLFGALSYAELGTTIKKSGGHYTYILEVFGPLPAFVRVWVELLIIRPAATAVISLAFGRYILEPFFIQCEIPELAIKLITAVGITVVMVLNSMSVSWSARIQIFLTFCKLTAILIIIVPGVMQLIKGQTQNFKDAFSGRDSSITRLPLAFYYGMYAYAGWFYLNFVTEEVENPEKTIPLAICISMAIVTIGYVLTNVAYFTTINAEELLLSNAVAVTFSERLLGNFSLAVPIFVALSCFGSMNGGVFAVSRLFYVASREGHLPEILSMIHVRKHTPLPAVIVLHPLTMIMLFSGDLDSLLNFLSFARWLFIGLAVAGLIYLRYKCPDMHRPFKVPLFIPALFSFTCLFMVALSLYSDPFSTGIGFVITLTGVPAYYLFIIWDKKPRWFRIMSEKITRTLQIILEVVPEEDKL
T1 sequence (P08195 1-529 partner): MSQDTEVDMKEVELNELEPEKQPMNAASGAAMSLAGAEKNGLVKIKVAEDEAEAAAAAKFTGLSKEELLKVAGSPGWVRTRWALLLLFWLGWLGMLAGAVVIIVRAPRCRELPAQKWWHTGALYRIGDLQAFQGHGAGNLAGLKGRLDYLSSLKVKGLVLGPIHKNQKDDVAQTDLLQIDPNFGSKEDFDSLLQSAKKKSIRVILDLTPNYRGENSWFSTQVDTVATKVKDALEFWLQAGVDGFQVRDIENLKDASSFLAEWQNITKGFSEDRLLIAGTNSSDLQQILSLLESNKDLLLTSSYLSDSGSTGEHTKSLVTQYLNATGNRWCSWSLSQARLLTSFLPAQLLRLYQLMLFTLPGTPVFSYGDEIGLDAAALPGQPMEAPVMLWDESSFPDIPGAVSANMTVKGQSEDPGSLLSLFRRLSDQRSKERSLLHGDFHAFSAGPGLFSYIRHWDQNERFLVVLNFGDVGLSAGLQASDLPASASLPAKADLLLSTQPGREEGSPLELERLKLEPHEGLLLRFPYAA

HT-1080 cells = assay: Modulatory profiling with lethal molecules and cell death modulators; format: cell-based, human
HT-1080 tumor = HT-1080 tumor formation, mouse xenograft model; format: in vivo, athymic nude mice; settings: PE 40 mg/kg SC then 30 mg/kg tail vein; erastin SC
Experimental: The images show representative tumors in live mice from each treatment group.
Athymic nude mice (8 weeks, Charles River) were injected with 4 million HT-1080 cells subcutaneously (SC). […] Two days later, the SC injection was repeated. Three days later, […] of vehicle or 30 mg/kg PE were administered to the mice through a tail vein. The tail vein injection was repeated three times more, once every other day, before the final tumor size was measured in both groups.
Instead, erastin was injected through the SC route using the same schedule as PE until the tumor size was measured.

cellular GSH = assay: GSH depletion assay; format: cell-based; settings: BJeLR cells, lethal RSL3 dose
GFP-ALOX5 = GFP-ALOX5 translocation assay; format: cell-based, human
lipid peroxides = assay: Lipid peroxide detection using BODIPY-C11; format: cell-based; settings: BJeLR and other BJ-derived cells

Compound | Selectivity (IC50BJeH/IC50BJeLR) (BJeLR) | IC50 (BJeLR; 2 days, alamar blue) | IC50 (HT1080) | RSL phenotype (selective lethality in oncogenic-RAS cells) [1] | Half-life in liver microsomes [2] | IC50 (system xc−) | form of cell death (modulatory profile) (HT-1080 cells) | preventing HT-1080 tumor formation (HT-1080 tumor) | cellular GSH level (cellular GSH) | translocation of GFP-ALOX5 to the nuclear membrane (GFP-ALOX5) | generation of lipid peroxides (BODIPY-C11) (lipid peroxides)
CC(C)Oc1ccc(CN2CCNCC2)cc1-n1c(CN2CCN(C(=O)COc3ccc(Cl)cc3)CC2)nc2ccccc2c1=O [PE, piperazine erastin] | 3 | 300 nM | 1200 nM | retained the RSL phenotype | 55 min | 800 nM | induced a similar form of cell death as erastin | improved efficacy over erastinin (ERA) |  |  | 
COC(=O)c1ccc([C@@H]2c3[nH]c4ccccc4c3C[C@@H](C(=O)OC)N2C(=O)CCl)cc1 [RSL3] |  |  |  | exhibited selective lethality in BJeLR cells |  |  |  |  | remained unaffected | caused GFP-ALOX5 translocation to the nuclear membrane in BJeLR cells | generation of lipid peroxides
